Legend:
[1] = molecular target: T1, DPP-IV (Homo sapiens, UniProt P27487); experiment: DPP-IV assay with extract of Caco-2 cells as DPP IV source (AFC substrate, fluorescence); format: biochemical; details: extract of human colon carcinoma cell line Caco-2; substrate 100 μM; 60 minutes at ambient temperature; read-out: DPP IV inhibition IC50
T1 construct: an extract of the human colon carcinoma cell line Caco-2 is used as the DPP IV source; endogenous in cells; host or cells: Caco-2 (human colon carcinoma), differentiated to induce DPP-IV expression; Nonidet-P40 solubilised extract
Procedure: The differentiation of the cells in order to induce the DPP-IV expression was carried out in accordance with the description by Reiher et al. in an article entitled “Increased expression of intestinal cell line Caco-2”, which appeared in Proc. Natl. Acad. Sci. Vol. 90, pp. 5757-5761 (1993). The cell extract was obtained from cells solubilised in a buffer (10 mM Tris HCl, 0.15 M NaCl, 0.04 t.i.u. aprotinin, 0.5% Nonidet-P40, pH 8.0) by centrifugation at 35,000 g for 30 minutes at 4° C. (to remove cell debris).
The DPP-IV assay was carried out as follows:
50 μl of substrate solution (AFC; AFC is amido-4-trifluoromethylcoumarin), final concentration 100 μM, were placed in black microtitre plates. 20 μl of assay buffer (final concentrations 50 mM Tris HCl pH 7.8, 50 mM NaCl, 1% DMSO) was pipetted in. The reaction was started by the addition of 30 μl of solubilised Caco-2 protein (final concentration 0.14 μg of protein per well). The test substances under investigation were typically added prediluted to 20 μl, while the volume of assay buffer was then reduced accordingly. […] Then the fluorescence was measured in a Victor 1420 Multilabel Counter, with the excitation wavelength at 405 nm and the emission wavelength at 535 nm. […] The potency of the test substances in question, expressed as IC50 values, were calculated from dosage/activity curves consisting of 11 measured points in each case.

[2] = system: rats; experiment: Tolerability in rats after oral administration; format: in vivo; details: oral administration of 10 mg/kg

T1 sequence (P27487 whole entry): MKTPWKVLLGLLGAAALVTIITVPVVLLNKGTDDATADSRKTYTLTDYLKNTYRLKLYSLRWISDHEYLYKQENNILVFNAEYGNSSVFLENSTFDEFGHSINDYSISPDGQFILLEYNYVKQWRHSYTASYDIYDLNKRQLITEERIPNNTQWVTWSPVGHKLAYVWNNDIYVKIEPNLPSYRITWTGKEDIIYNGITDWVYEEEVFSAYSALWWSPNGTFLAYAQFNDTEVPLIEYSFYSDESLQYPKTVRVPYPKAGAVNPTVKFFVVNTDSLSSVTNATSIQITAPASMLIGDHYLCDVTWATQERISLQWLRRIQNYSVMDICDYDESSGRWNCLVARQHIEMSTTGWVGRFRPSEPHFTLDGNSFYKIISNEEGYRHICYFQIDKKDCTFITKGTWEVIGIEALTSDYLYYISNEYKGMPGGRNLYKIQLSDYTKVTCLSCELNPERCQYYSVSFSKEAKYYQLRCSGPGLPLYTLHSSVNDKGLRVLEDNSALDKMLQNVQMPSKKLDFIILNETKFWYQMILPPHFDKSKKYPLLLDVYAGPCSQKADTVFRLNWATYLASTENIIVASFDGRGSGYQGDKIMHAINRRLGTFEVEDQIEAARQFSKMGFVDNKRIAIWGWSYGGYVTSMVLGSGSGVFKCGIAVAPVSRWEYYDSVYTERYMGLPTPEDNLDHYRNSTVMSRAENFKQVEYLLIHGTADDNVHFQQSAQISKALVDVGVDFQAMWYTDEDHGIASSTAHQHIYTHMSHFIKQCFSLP

Structure (SMILES)	IC50 [1] [nM]	toxic side effects [2]
CC#CCn1c(N2CCC[C@@H](N)C2)nc2c1c(=O)n(Cc1nc(C)c3ccccc3n1)c(=O)n2CC(=O)OC [Example 1(2), (R)-1-(4-methyl-quinazolin-2-ylmethyl)-3-(methoxycarbonylmethyl)-7-(but-2-ynyl)-8-(3-amino-piperidin-1-yl)-xanthine]	3	no toxic side effects could be detected
CC#CCn1c(N2CCC[C@@H](N)C2)nc2c1c(=O)n(Cc1nc(C)c3ccccc3n1)c(=O)n2CC(=O)OCC [1(3), (R)-1-(4-methyl-quinazolin-2-ylmethyl)-3-(ethoxycarbonylmethyl)-7-(but-2-ynyl)-8-(3-amino-piperidin-1-yl)-xanthine]	3	
